Structures are written as SMILES.

What all share (assay type): cell-based
One experiment concerns MM. 1S cells. The experiment is described as follows: MTS cell viability assay, MM. 1S cells. Particulars: Homo sapiens, MM1.S, 72 hours incubation. The protocol:
(§1) About 2000-5000 of U266 cells, REH cells, K562 cells, KMS-11 cells, RPMI-8226 cells and MM. 1S cells were incubated with RBC-2008 in 384 well assay plates at 37° C., 5% CO2 for 72 hours. An amount of 5 μl of CellTiter 96® AQueous One Solution Reagent (MTS assay reagent) from Promega was added to each well and incubated for 3 hours. Absorbance at 492 nm was recorded by Envision Multilabel Reader. The IC50 curves were plotted and the IC50 values were calculated using the GraphPad Prism 4 program based on sigmoidal dose-response equation. […] 1S cells respectively (FIG. 8).
For orientation: Tetrazolium dyes change colour on reduction, which living cells bring about.

A further experiment deals with REH cells. The experiment is described as follows: MTS cell viability assay, REH cells. Particulars: Homo sapiens, 72 hours incubation. How it is done:
as §1

Another experiment concerns KMS-11 cells. In words: MTS cell viability assay, KMS-11 cells. Particulars: Homo sapiens, 72 hours incubation. How it is done: as §1
In another experiment the test system is K562 cells. The experiment is described as follows: MTS cell viability assay, K562 cells. The settings on record: Homo sapiens, 72 hours incubation. How it is done:
The effects of RBC-2008 on the viability of human tumor cell were assessed in an MTS assay. K562 cells were incubated with RBC-2008 in 384 well assay plates at 37° C., 5% CO2 for 72 hours. 5 μl of CellTiter 96® AQueous One Solution Reagent (MTS assay reagent) from Promega was added to each well and incubated for 3 hours. Absorbance at 492 nm was recorded using an Envision Multilabel Reader. The IC50 curves were plotted and the IC50 values were calculated using the GraphPad Prism 4 program based on a sigmoidal dose-response equation (FIG. 5).
as §1

For another experiment, the system named is U266 cells. In words: MTS cell viability assay, U266 cells. The settings on record: Homo sapiens, U-266, 72 hours incubation. The protocol: as §1
The next experiment deals with RPMI-8226 cells. The experiment is described as follows: MTS cell viability assay, RPMI-8226 cells. Particulars: Homo sapiens, 72 hours incubation. How it is done:
as §1

What is called IC50 is the concentration that inhibits the measured activity by half. A high value points to weaker potency in that assay. Turning to `O=C(NO)c1ccc(Cn2sc3ccccc3c2=O)cc1` [RBC-2008], the IC50 amounted to 2.1 µM in the experiment with MM. 1S cells; 1.8 µM in the experiment with REH cells; 2.5 µM in the experiment on KMS-11 cells; 13.1 µM in the experiment with K562 cells; 14.5 µM in the experiment with U266 cells; 3.8 µM in the experiment with RPMI-8226 cells.

These data come from patent US20170360761A1, “Selective Inhibition of HDAC6 and HDAC8, and Methods of Use Thereof” (Reaction Biology Corp., priority 2016, published 2017).
